# Measured values taken from US8778941B2, “TRPM8 antagonists and their use in treatments” (AMGEN Inc., priority 2011, dated 2014).
# What was measured:
# human TRPM8 = target: T1, human TRPM8 (Homo sapiens, UniProt Q7Z2W7); assay: Luminescence readout assay for measuring intracellular calcium (aequorin), hTRPM8 antagonism; format: cell-based; details: CHO cell line expressing human TRPM8 and aequorin; activation by icilin, L-menthol or cold buffer (table does not say which)
# T1 construct: expressed in transfected cells; host or cells: Chinese hamster ovary (CHO) cells, T-REx tetracycline-inducible expression system (Invitrogen), co-transfected with pcDNA3.1 jellyfish aequorin
# T1 sequence (Q7Z2W7 whole entry): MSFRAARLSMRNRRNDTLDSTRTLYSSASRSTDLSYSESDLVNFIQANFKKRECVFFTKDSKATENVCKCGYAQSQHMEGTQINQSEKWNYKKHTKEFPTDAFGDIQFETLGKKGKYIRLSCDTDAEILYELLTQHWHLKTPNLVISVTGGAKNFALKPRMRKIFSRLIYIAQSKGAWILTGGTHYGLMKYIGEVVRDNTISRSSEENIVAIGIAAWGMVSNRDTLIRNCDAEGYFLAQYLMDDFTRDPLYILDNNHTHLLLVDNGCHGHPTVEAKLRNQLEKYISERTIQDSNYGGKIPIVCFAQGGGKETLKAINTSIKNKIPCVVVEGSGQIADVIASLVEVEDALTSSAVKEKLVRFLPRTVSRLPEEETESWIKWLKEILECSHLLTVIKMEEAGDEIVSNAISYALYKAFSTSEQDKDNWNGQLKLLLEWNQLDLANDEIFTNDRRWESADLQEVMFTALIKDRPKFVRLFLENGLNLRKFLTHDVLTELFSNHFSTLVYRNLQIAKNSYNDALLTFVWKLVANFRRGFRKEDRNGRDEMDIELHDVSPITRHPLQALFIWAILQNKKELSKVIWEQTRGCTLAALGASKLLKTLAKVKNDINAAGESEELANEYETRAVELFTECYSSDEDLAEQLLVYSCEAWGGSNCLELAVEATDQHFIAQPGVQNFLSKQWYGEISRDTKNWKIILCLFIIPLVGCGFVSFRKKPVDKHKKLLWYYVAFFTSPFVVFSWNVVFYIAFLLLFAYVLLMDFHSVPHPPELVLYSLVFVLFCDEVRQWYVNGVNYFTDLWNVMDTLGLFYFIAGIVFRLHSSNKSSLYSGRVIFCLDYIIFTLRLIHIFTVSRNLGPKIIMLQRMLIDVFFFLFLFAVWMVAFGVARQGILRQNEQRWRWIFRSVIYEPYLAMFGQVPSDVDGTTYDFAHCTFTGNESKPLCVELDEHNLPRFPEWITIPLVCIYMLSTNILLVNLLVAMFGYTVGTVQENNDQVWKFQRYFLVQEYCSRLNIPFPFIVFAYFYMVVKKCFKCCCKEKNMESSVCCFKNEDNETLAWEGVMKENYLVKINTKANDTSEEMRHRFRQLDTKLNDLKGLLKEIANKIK
# male C57BL/6 mice = assay: Inhibition of icilin induced jumping in mice; format: in vivo; details: given 1 hour before icilin (i.p. 20 mg/kg), jumps counted 10 minutes post-icilin
# Description: Icilin Biochemical Challenge Models
# Inhibition of Icilin Induced Jumping in Mice
# Example compounds at doses ranging from 0.01 to 10 mg/kg were administered to male C57BL/6 mice (18-25 g, Taconic, n=10/treatment) 1 hour before icilin to assess the ability to block the spontaneous jumps induced by icilin (i.p. suspended in 100% PEG400 at 20 mg/kg, 5 mL/kg). The total number of jumps was recorded during the 10 minutes post-icilin administration based on the number of photocell beam breaks from the vertical array of open field boxes (Kinder Scientific) while movement of the mice was restricted within a clear Plexiglas® cylinder 9.5 cm diameter×30 cm height.
Structure (SMILES),IC50 (human TRPM8) [nM],% Inhibition of Mouse Jumping (male C57BL/6 mice; dose 10 mg/kg) [%],% Inhibition of Mouse Jumping (male C57BL/6 mice; dose 3 mg/kg) [%]
"CC1(C)C[C@H]1c1cccnc1[C@@H](NC(=O)Nc1cccnc1)c1ccc(C(F)(F)F)cc1 [Example 61, 1-((S)-(3-((R)-2,2-dimethylcyclopropyl)-pyridin-2-yl)-(4-(trifluoro-methyl)-phenyl)-methyl)-3-(pyridin-3-yl)-urea]",62,90,
"O=C(Nc1cccnc1)N[C@@H](c1ccc(C(F)(F)F)c(F)c1)c1ncccc1C(F)(F)F [Example 1, (S)-1-((3-Fluoro-4-(trifluoromethyl)phenyl)(3-(trifluoromethyl)-pyridin-2-yl)methyl)-3-(pyridin-3-yl)urea bis(2,2,2-trifluoroacetate)]",23,75,
"CC#Cc1cccnc1[C@@H](NC(=O)Nc1cccnc1)c1ccc(C(F)(F)F)cc1 [Example 51, (S)-1-((3-(prop-1-yn-1-yl)pyridin-2-yl)(4-(trifluoro-methyl)-phenyl)-methyl)-3-(pyridin-3-yl)-urea]",37,76,
"C[C@H](NC(=O)N[C@@H](c1ccc(C(F)(F)F)c(F)c1)c1ncccc1C(F)(F)F)C(F)(F)F [Example 151, 1-((S)-(3-fluoro-4-(trifluoro-methyl)-phenyl)(3-(trifluoro-methyl)-pyridin-2-yl)-methyl)-3-((S)-1,1,1-trifluoro-propan-2-yl)-urea (2,2,2-trifluoro-acetate)]",39,,30
"O=C(Nc1cccnc1)N[C@@H](c1ccc(C(F)(F)F)cc1)c1ncccc1C(F)(F)F [Example 44, (S)-1-(pyridin-3-yl)-3-((4-(trifluoro-methyl)-phenyl)(3-(trifluoro-methyl)-pyridin-2-yl)-methyl)urea]",23,74,
"COC(=O)c1ccccc1NC(=O)N[C@@H](c1ccc(C(F)(F)F)cc1)c1ncccc1F [Example 118, (S)-methyl 2-(3-((3-fluoro-pyridin-2-yl)-(4-(trifluoro-methyl)-phenyl)-methyl)-ureido)-benzoate]",162,,
Cc1ccc(C)c(NC(=O)N[C@@H](c2ccc(C(F)(F)F)cc2)c2ncccc2C(F)(F)F)c1 [Example 108],829,,
"Cc1ccc([N+](=O)[O-])c(NC(=O)N[C@@H](c2ccc(C(F)(F)F)cc2)c2ncccc2C(F)(F)F)c1 [Example 143, (S)-1-(5-methyl-2-nitrophenyl)-3-((4-(trifluoro-methyl)-phenyl)(3-(trifluoro-methyl)-pyridin-2-yl)-methyl)urea (2,2,2-trifluoro-acetate)]",1300,,
"O=C(N[C@@H](c1ccc(OC(F)(F)F)c(F)c1)c1ncccc1F)OC1COC1 [Example 177, (S)-oxetan-3-yl ((3-fluoro-4-(trifluoromethoxy)phenyl)(3-fluoropyridin-2-yl)methyl)carbamate]",517,,
"O=C(Nc1ccc(F)cc1)N[C@@H](c1ccc(C(F)(F)F)cc1)c1ncccc1C(F)(F)F [Example 47, (S)-1-(4-fluorophenyl)-3-((4-(trifluoro-methyl)-phenyl)(3-(trifluoro-methyl)-pyridin-2-yl)-methyl)urea]",98,,
"COc1cc(CCNC(=O)N[C@@H](c2ccc(C(F)(F)F)cc2)c2ncccc2C(F)(F)F)cc(OC)c1 [Example 93, (S)-1-(3,5-dimethoxy-phenethyl)-3-((4-(trifluoro-methyl)-phenyl)(3-(trifluoro-methyl)-pyridin-2-yl)-methyl)urea (2,2,2-trifluoro-acetate)]",1440,,
"O=C(Nc1ccccc1)N[C@@H](c1ccc(C(F)(F)F)cc1)c1ncccc1C(F)(F)F [Example 31, (S)-1-phenyl-3-((4-(trifluoro-methyl)-phenyl)(3-(trifluoro-methyl)-pyridin-2-yl)-methyl)urea]",81,,
"CCc1ccc([C@H](NC(=O)Nc2cccnc2)c2ncccc2C(F)(F)F)cc1 [Example 27, (S)-1-((4-ethylphenyl)-(3-(trifluoro-methyl)-pyridin-2-yl)-methyl)-3-(pyridin-3-yl)-urea]",41,,
"Cn1cc(NC(=O)N[C@@H](c2ccc(C(F)(F)F)cc2)c2ncccc2F)ccc1=O [Example 162, (S)-1-((3-fluoropyridin-2-yl)(4-(trifluoro-methyl)-phenyl)-methyl)-3-(1-methyl-6-oxo-1,6-dihydropyridin-3-yl)urea]",491,,
"O=C(Nc1cccnc1)N[C@@H](c1ccc(C(F)(F)F)c(F)c1)c1ncccc1F [Example 29, (S)-1-((3-fluoro-4-(trifluoro-methyl)-phenyl)(3-fluoropyridin-2-yl)methyl)-3-(pyridin-3-yl)urea]",17,96,
"C[C@H](NC(=O)N[C@@H](c1ccc(C(F)(F)F)cc1)c1ncccc1C(F)(F)F)c1cccc2ccccc12 [Example 33, 1-((S)-1-(naphthalen-1-yl)ethyl)-3-((S)-(4-(trifluoro-methyl)-phenyl)(3-(trifluoro-methyl)-pyridin-2-yl)-methyl)urea (2,2,2-trifluoro-acetate)]",1900,,
"FC(F)(F)c1ccc([C@H](NC(=S)Nc2cccnc2)c2ncccc2C(F)(F)F)cc1 [Example 122, (S)-1-(pyridin-3-yl)-3-((4-(trifluoro-methyl)-phenyl)(3-(trifluoro-methyl)-pyridin-2-yl)-methyl)-thiourea]",221,,
"O=C1CCC(OC(=O)N[C@@H](c2ccc(OC(F)(F)F)c(F)c2)c2ncccc2F)CN1 (stereo partly drawn) [Example 178, 6-Oxopiperidin-3-yl((S)-(3-fluoro-4-(trifluoromethoxy)phenyl)(3-fluoropyridin-2-yl)methyl)carbamate]",2060,,
"O=C(Nc1ccc(-c2noc(=O)[nH]2)cc1)N[C@@H](c1ccc(C(F)(F)F)cc1)c1ncccc1C(F)(F)F [Example 148, (S)-1-(4-(5-Oxo-4,5-dihydro-1,2,4-oxadiazol-3-yl)phenyl)-3-((4-(trifluoromethyl)phenyl)(3-(trifluoromethyl)pyridin-2-yl)methyl)urea]",1610,,
"Cc1ccccc1NC(=O)N[C@@H](c1ccc(C(F)(F)F)cc1)c1ncccc1C(F)(F)F [Example 145, (S)-1-(o-tolyl)-3-((4-(trifluoro-methyl)-phenyl)(3-(trifluoro-methyl)-pyridin-2-yl)-methyl)urea (2,2,2-trifluoro-acetate)]",474,,
"O=C(Nc1cccnc1)NC(c1ccc(C(F)(F)F)cc1)c1ccncc1Br (stereo not shown) [Example 120, 1-((3-bromopyridin-4-yl)(4-(trifluoro-methyl)-phenyl)-methyl)-3-(pyridin-3-yl)-urea (2,2,2-trifluoro-acetate)]",2850,,
"C[C@@H](NC(=O)N[C@@H](c1ccc(C(F)(F)F)c(F)c1)c1ncccc1C(F)(F)F)C(F)(F)F [Example 152, 1-((S)-(3-fluoro-4-(trifluoro-methyl)-phenyl)(3-(trifluoro-methyl)-pyridin-2-yl)-methyl)-3-((R)-1,1,1-trifluoro-propan-2-yl)-urea (2,2,2-trifluoro-acetate)]",70,,
